Measured values from patent EP0103030A1, “Polycyclic fused pyrazole compounds, useful as anti-inflammatory agents, and preparation thereof” (STERLING DRUG INC., priority 1982, dated 1984).

How the values were obtained:
Assay type in all cases: in vivo
[1] = test system: Male rats; test: Anti-inflammatory activity (a-tocopherol pouch test)
Experimental: A rapid subcutaneous injection of 25 mL of air was made between the scapulae of each rat. […] The test compound was administered in daily oral doses for 7 days beginning on the day of pouch formation. The compound to be tested was suspended in 1% gum tragacanth. Twenty-four hours after the last medication, the pouches were dissected free, and the fluid volume was measured. The inhibition of liquid exudate is a measure of the anti=inflammatory activity.

[2] = test system: Mature female rats; test: Endocrine profile (thymus, adrenal and body weight after 2 weeks oral medication); conditions: compared with the controls
Experimental: The test procedures used to determine the biological activities of the compounds of the invention were carried out as follows: • Endocrine Profile: Mature female rats with an average body weight of 202 g and a body weight range of 15 g or less were medicated orally with test compound for 2 weeks. The test compound was prepared as a solution or suspension in 1% gum tragacanth or 0.75% methyl cellulose. On the day following the last medication, the rats were killed and the thymus and adrenal of each rat were removed, cleaned, and weighed. Body weights and food consumptions were also recorded.

[3] = test system: Mature male rats were bilaterally adrenalectomized; test: Glycogenic activity (liver glycogen deposition test)
From the text: Glycogenic Activity: Mature male rats were bilaterally adrenalectomized 5 days prior to the test. These rats were medicated orally with the test compound for 5 days. Seven hours after the last medication, the rats (which have been fasted overnight) were anesthetized with sodium pentobarbital and a portion of one lobe of the liver was removed and frozen on dry ice for subsequent glycogen determination.

Structure (SMILES)	activity in the a-tocopherol pouch test ([1]; dose level of 100 mg/kg, daily oral doses for 7 days, male rats)	reduction in adrenal weight ([2]; dose level of 5 mg/kg)	reduction in body weight gain ([2]; dose level of 5 mg/kg)	reduction in thymus weight ([2]; dose level of 5 mg/kg)	ED50 ([1]; Rattus norvegicus, 168 h, daily oral doses for 7 days, male rats, inhibition of liquid exudate)	anti-inflammatory activity by the a-tocopherol pouch test ([1]; rats, general statement)	reduction in adrenal weight ([2]; dose level of 1 mg/kg)	reduction in body weight gain ([2]; dose level of 1 mg/kg)	reduction in thymus weight ([2]; dose level of 1 mg/kg)	liver glycogen deposition value ([3]; dose level of 9 mg/kg/day x 5, oral, adrenalectomized male rats, vehicle 2.2 + 0.04 mg/g)	glucocorticoid activity by the liver glycogen deposition test ([3]; oral, rats, general statement)
CC12Cc3cnn(-c4ccccc4)c3C=C1CCC1OC3(CC=C12)C(=O)c1ccccc1C3=O (centres unmarked) [Compound I (R = H), 2',3',5',6',11',11a'-Hexahydro-11a'-methyl-8'-phenylspiro 2H-indene[2,3']-3H-pyrazolo[4",5":7',6']naphtho[2,1-b] pyran-1,3-dione]	inactive	38%	62%	51%							
CC12Cc3cnn(-c4ccc(F)cc4)c3C=C1CCC1OC3(CC=C12)C(=O)c1ccccc1C3=O (centres unmarked) [Compound I (R = F), 8'-(4-Fluorophenyl)-2',3',5',6',ll',lla'-hexahydro-lla'-methylspiro-2H-indene[2,3']-3H-pyrazolo[4",5":7',6']-naphtho-[2,1-b] pyran-1,3-dione]					10 mg/kg	anti-inflammatory activity	56%	129%	61%	21.8 + 4.4 mg/g of tissue	oral glucocorticoid activity
